Reference: patent US20120157401A1, “METHODS FOR TREATING NEUROFIBROMATOSIS” (PTC Therapeutics, Inc., priority 2009, published 2012)

Legend:
[1] = 14C-Compound #10 tissue distribution by quantitative whole-body autoradiography (Tables 23, 33); assay type: in vivo; details: rats, single oral 50 mg/kg
Description: For the QWBA, the carcasses were prepared by immediately freezing them, embedding them in chilled carboxymethylcellulose, and freezing them into blocks. Appropriate cryomicrotome sections of the blocks at 40 μm thickness were collected on adhesive tape. Mounted sections were tightly wrapped and exposed on phosphorimaging screens along with plastic embedded autoradiographic standards. Exposed screens were scanned and the autoradiographic standard image data were sampled to create a calibrated standard curve. Specified tissues, organs, and fluids were analyzed.

[2] = test system: SKNEP orthotopic xenografts; experiment: Orthotopic SKNEP Ewing sarcoma tumor model (kidney capsule): tumor weight; assay type: in vivo, athymic nude mice; details: 5 weeks of treatment
From the text: Experimental Design. In orthotopic tumor models, human tumor cells are implanted into the mouse in an organ that corresponds to the location from which the tumors arise. Such models may provide a better predictor of clinical efficacy than injection of tumors into the flanks of nude mice. See Hoffman, Invest. New Drugs 1999, 17(4):343-59. SY5Y neuroblastoma or SKNEP Ewing sarcoma tumor cells (1×10^6 cells/mouse) were implanted into the kidney capsule of female athymic nude mice according to published methods. See Huang et al., Proc. Natl. Acad. Sci. USA 2003, 100(13):7785-90. One week after implantation of each type of tumor, mice were divided into 2 groups and were administered a test Compound as shown in Table 21.
After 5 weeks of treatment, the mice were sacrificed, and the weights of the tumors were assessed.

T47D xenografts = experiment: T47D estrogen-sensitive breast cancer xenograft: tumor growth
Description: Experimental Design. Estrogen pellets (0.72 mg/pellet) were implanted 30 days prior to cell implantation and again 60 days later. T47D estrogen-sensitive breast cancer cells (5×10^6 cells/mouse mixed 1:1 with […] ™) were implanted subcutaneously in female athymic nude mice. […] Tamoxifen was included as a positive control.
Tumor size was measured by calipers at periodic intervals. After 74 days of treatment, the mice were sacrificed.

[3] = test system: soluble VEGF121 and VEGF165 isoforms; experiment: Inhibition of soluble VEGF production in human tumor cell lines (ELISA, EC50); assay type: cell-based
Description: Study Design. […] In these experiments, cultures were established under normoxic conditions (21% oxygen). […] Cells requiring induction of VEGF production were incubated under hypoxic conditions (1% oxygen). At the completion of treatment, the conditioned media were collected and assayed by ELISA (as described in Section 9.1.1.1) for soluble VEGF121 and VEGF165 isoforms; results were calculated as percentage inhibition relative to vehicle treated controls. EC50 values were calculated from the dose concentration response curves.

HT1080 cells = experiment: Anchorage-independent colony formation in HT1080 cells; assay type: cell-based, human; details: 10 and 50 nM, day 18; P=0.29 and 0.07
Description: Experimental Design. HT1080 cells growing in monolayer were trypsinized, counted and suspended in a 0.35% agar noble/1× complete DMEM solution at 37° C. at a concentration of 2,500 cells/mL. One ml of this solution was layered over a semisolid base consisting of 0.5 mL of 0.75% agar noble/1× complete DMEM in a six well tissue culture plate. […] Tissue culture plates were then returned to the incubator and colonies were allowed to form. […] On day 18 the vehicle-treated wells had colonies of sufficient size to count (>50 cells/colony). At this time, for increased visualization, 1.5 mL of a 2× working volume of (3-(4,5-Dimethylthiazol-2-yl)-2,5-diphenyltetrazolium bromide, a tetrazole) (MTT, Invitrogen, Cat #C35007) was added and the plates were returned to the incubator for 2 hours until colonies were stained by conversion of the MTT to purple formazan crystals. Colonies were then visually counted under a dissecting microscope.

HeLa cells = experiment: Cell Titer Glo cytotoxicity / cell viability assay in HeLa cells (CC50); assay type: cell-based, human; details: any concentration tested
From the text: A dose-response analysis may be performed using the ELISA assay and conditions described above. The conditions for the dose-response ELISA are analogous to those described above. A series of, e.g., seven different concentrations may be analyzed. In parallel, a dose-response cytotoxicity assay may be performed using Cell Titer Glo (Promega) under the same conditions as the ELISA to ensure that the inhibition of VEGF expression was not due to the cytotoxicity.
Experimental Design. HeLa (human cervical carcinoma) cell cultures were established under normoxic conditions (21% oxygen). HeLa cells increase VEGF production 4- to 5-fold in response to hypoxia. […] At the completion of treatment, the conditioned media were collected and the VEGF protein levels were assayed in an enzyme-linked immunosorbent assay (ELISA) with primary antibodies that recognize the soluble VEGF121 and VEGF165 isoforms (R & D Systems, Minneapolis, Minn., USA). To ensure that decreases in VEGF concentration were not due to cytotoxicity, cultures were assayed using a standard assay ([…]-GLO® Luminescent Cell Viability Assay; Promega, Madison, Wis., USA) that measures total cellular adenosine triphosphate (ATP) concentrations as an indicator of cell viability.

[4] = 28-day oral toxicity study in rats (14-day recovery); assay type: in vivo
Description: A battery of genotoxicity studies was also performed. […] The L23 vehicle was used.
Exposures were maximal at 120 mg/kg/day.

CYP2D6 = biological target: T1, CYP2D6 (Homo sapiens, UniProt P10635); experiment: CYP inhibition in human hepatic microsomes / recombinant isoenzymes: CYP2D6; assay type: in vitro ADME; details: human hepatic microsomes or recombinant isoenzymes
T1 construct: host or cells: human hepatic microsomes or recombinant isoenzyme (not distinguished)
T1 sequence (P10635 whole entry): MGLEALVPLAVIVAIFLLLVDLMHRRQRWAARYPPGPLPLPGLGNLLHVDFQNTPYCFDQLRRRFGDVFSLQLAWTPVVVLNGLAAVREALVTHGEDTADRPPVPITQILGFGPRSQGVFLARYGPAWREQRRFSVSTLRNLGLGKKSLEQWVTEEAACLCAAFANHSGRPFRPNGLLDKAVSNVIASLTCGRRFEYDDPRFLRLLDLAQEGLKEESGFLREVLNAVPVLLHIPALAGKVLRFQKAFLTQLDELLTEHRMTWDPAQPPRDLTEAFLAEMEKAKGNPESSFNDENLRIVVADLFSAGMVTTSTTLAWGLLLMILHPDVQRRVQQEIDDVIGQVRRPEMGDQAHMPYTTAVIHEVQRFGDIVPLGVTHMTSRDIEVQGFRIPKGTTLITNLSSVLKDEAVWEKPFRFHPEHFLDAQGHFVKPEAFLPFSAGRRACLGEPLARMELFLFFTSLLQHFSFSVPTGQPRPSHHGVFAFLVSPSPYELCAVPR
From the text: It is possible that in certain clinical trial subjects, such agents may need to be adjusted for dosing or replaced by alternative agents that are not metabolized by CYP2D6, particularly when such agents may have a low therapeutic index.

IL-6 = experiment: Patients: serum and plasma IL-6 levels; assay type: in vivo, human
Description: Subjects with NF2 may receive continuous daily treatment with a Compound administered at 100 mg per dose, 2 times a day (BID) for up to 1 year, or longer as appropriate, or until tumor progression. […] Tumor shrinkage or an improvement in hearing are indicators of efficacy.
Anti-angiogenic activity: Assessing VEGF concentrations provides a relevant and convenient mechanism-specific marker of Compound activity. […] For example, clinically validated ELISA kits (e.g., from R&D Systems, Minneapolis, Minn.) may be used to measure concentrations of VEGF, VEGF-C, P1GF, VEGFR, and inflammatory mediators such as IL-6 and IL-8. CT scan and MRI scan may also be used to assess peritumoral inflammation or edema.
Blood for VEGF, VEGFR, and Cytokines. Two blood samples (1 for plasma and 1 for serum) may be obtained for assessment of VEGF, VEGFR, and cytokine levels.
After processing, samples may be placed into a freezer at approximately −70° C. An ELISA-based multiplex system may be used to measure plasma VEGF and cytokine levels.

Q: What does the source list for `COc1ccc(C2c3[nH]c4ccc(Cl)cc4c3CCN2C(=O)Oc2ccc(Cl)cc2)cc1` (racemic) [Compound #10]?
A: Tmax of radioactivity in blood and plasma ([1]; both sexes): 4 hours postdose; Blood-brain barrier penetration [1]: penetrates the blood-brain barrier; Overt signs of toxicity [1]: no overt signs of toxicity; Growth of orthotopic SKNEP tumors (tumor weight) [2]: completely prevented growth; Mean % Inhibition of Tumor Size vs Vehicle at Day 74 (T47D xenografts; 10 mg/kg oral QD): 40%; Toxicity on observing the animals (T47D xenografts; T47D xenograft mice, 10 mg/kg QD, 74 days): no evidence of toxicity; EC50 ([3]; A-375, Melanoma, A375, hypoxic (1% oxygen), 48 hours): 0.05 µM; EC50 ([3]; A-431, Epidermoid, A431, 48 hours): 0.01 µM; EC50 ([3]; Breast, MDA-MB-468, hypoxic (1% oxygen), 48 hours): 0.005 µM; EC50 ([3]; Cervical, HeLa, hypoxic (1% oxygen), 48 hours): 0.002 µM; EC50 ([3]; Colorectal, HCT-116, 48 hours): 0.01 µM; EC50 ([3]; Gastric, AGS, 48 hours): 0.0001 µM; EC50 ([3]; Gastric, Kato III, hypoxic (1% oxygen), 48 hours): 0.01 µM; EC50 ([3]; HT-1080, Fibrosarcoma, HT1080, 48 hours): 0.01 µM; EC50 ([3]; Lung, A549, 48 hours): 0.05 µM; EC50 ([3]; Lung, Calu-6, hypoxic (1% oxygen), 48 hours): 0.007 µM; EC50 ([3]; Lung, NCI H460, 48 hours): 0.01 µM; EC50 ([3]; MDA-MB-231, 48 h): 0.005 µM; EC50 ([3]; Neuroblastoma, SY5Y, hypoxic (1% oxygen), 48 hours): 0.005 µM; EC50 ([3]; Pancreas, Capan-1, hypoxic (1% oxygen), 48 hours): 0.005 µM; EC50 ([3]; Prostate, LNCaP, hypoxic (1% oxygen), 48 hours): 0.015 µM; EC50 ([3]; Renal cell, HEK293, 48 hours): 0.01 µM; EC50 ([3]; SK-OV-3, Ovarian, SKOV3, hypoxic (1% oxygen), 48 hours): 0.01 µM; EC50 ([3]; SNU1, Gastric, SNU-1, 48 hours): 0.0001 µM; Number of anchorage-independent colonies formed (HT1080 cells): modest trend toward a reduced number of colonies; Cytotoxicity (cellular ATP) (HeLa cells): No cytotoxicity was observed; NOAEL for 28-days [4]: 12 mg/kg/day; Dose of maximal exposures ([4]; 28-day oral gavage): 120 mg/kg/day; Adrenal weights ([4]; 28-day, all dose levels): Increased; Inhibition of CYP2D6 isoenzyme activity (CYP2D6): inhibits the activity; Plasma IL-6 levels in patients (FIG. 38) (IL-6): reduced
